Paper PMC11277489, “Novel Piperazine Derivatives of Vindoline as Anticancer Agents” (International Journal of Molecular Sciences, 2024)

Assays:
CCRF-CEM = assay: NCI60 one-dose screen (10 μM), Leukemia; assay type: cell-based; settings: Homo sapiens, 10 μM, Leukemia, read-out: Growth percent rate
HL-60(TB) = assay: NCI60 one-dose screen (10 μM), Leukemia; assay type: cell-based; settings: Homo sapiens; 10 μM; HL-60(TB), Leukemia; read-out: Growth percent rate
K-562 = assay: NCI60 one-dose screen (10 μM), Leukemia; assay type: cell-based; settings: Homo sapiens, K562; 10 μM; K-562, Leukemia; read-out: Growth percent rate
MOLT-4 = assay: NCI60 one-dose screen (10 μM), Leukemia; assay type: cell-based, human; settings: Homo sapiens; 10 μM; MOLT-4, Leukemia; read-out: Growth percent rate
RPMI-8226 = assay: NCI60 one-dose screen (10 μM), Leukemia; assay type: cell-based; settings: Homo sapiens; 10 μM; RPMI-8226, Leukemia; read-out: Growth percent rate
A549/ATCC = assay: NCI60 one-dose screen (10 μM), Non-small Cell Lung Cancer; assay type: cell-based; settings: Homo sapiens; 10 μM; A549/ATCC, Non-small Cell Lung Cancer; read-out: Growth percent rate
EKVX = assay: as above; assay type: cell-based; settings: Homo sapiens, 10 μM, Non-small Cell Lung Cancer, read-out: Growth percent rate
HOP-62 = assay: as above; assay type: cell-based; settings: Homo sapiens; 10 μM; HOP-62, Non-small Cell Lung Cancer; read-out: Growth percent rate
NCI-H23 = assay: as above; assay type: cell-based; settings: Homo sapiens; 10 μM; NCI-H23, Non-small Cell Lung Cancer; read-out: Growth percent rate
NCI-H322M = assay: as above; assay type: cell-based; settings: Homo sapiens, 10 μM, Non-small Cell Lung Cancer, read-out: Growth percent rate
NCI-H522 = assay: as above; assay type: cell-based; settings: Homo sapiens; 10 μM; NCI-H522, Non-small Cell Lung Cancer; read-out: Growth percent rate
COLO 205 = assay: NCI60 one-dose screen (10 μM), Colon Cancer; assay type: cell-based, human; settings: Homo sapiens; 10 μM; COLO 205, Colon Cancer; read-out: Growth percent rate
HCC-2998 = assay: NCI60 one-dose screen (10 μM), Colon Cancer; assay type: cell-based; settings: Homo sapiens; 10 μM; HCC-2998, Colon Cancer; read-out: Growth percent rate
HCT-116 = assay: NCI60 one-dose screen (10 μM), Colon Cancer; assay type: cell-based; settings: Homo sapiens; 10 μM; HCT-116, Colon Cancer; read-out: Growth percent rate
HCT-15 = assay: NCI60 one-dose screen (10 μM), Colon Cancer; assay type: cell-based; settings: Homo sapiens; 10 μM; HCT-15, Colon Cancer; read-out: Growth percent rate
HT29 = assay: NCI60 one-dose screen (10 μM), Colon Cancer; assay type: cell-based; settings: Homo sapiens, HT-29; 10 μM; HT29, Colon Cancer; read-out: Growth percent rate
KM12 = assay: NCI60 one-dose screen (10 μM), Colon Cancer; assay type: cell-based, human; settings: Homo sapiens; 10 μM; KM12, Colon Cancer; read-out: Growth percent rate
SW-620 = assay: NCI60 one-dose screen (10 μM), Colon Cancer; assay type: cell-based; settings: Homo sapiens; 10 μM; SW-620, Colon Cancer; read-out: Growth percent rate
SF-268 = assay: NCI60 one-dose screen (10 μM), CNS Cancer; assay type: cell-based; settings: Homo sapiens; 10 μM; SF-268, CNS Cancer; read-out: Growth percent rate
SF-295 = assay: NCI60 one-dose screen (10 μM), CNS Cancer; assay type: cell-based; settings: Homo sapiens; 10 μM; SF-295, CNS Cancer; read-out: Growth percent rate
SF-539 = assay: NCI60 one-dose screen (10 μM), CNS Cancer; assay type: cell-based, human; settings: Homo sapiens; 10 μM; SF-539, CNS Cancer; read-out: Growth percent rate
SNB-19 = assay: NCI60 one-dose screen (10 μM), CNS Cancer; assay type: cell-based; settings: Homo sapiens; 10 μM; SNB-19, CNS Cancer; read-out: Growth percent rate
LOX IMVI = assay: NCI60 one-dose screen (10 μM), Melanoma; assay type: cell-based, human; settings: Homo sapiens; 10 μM; LOX IMVI, Melanoma; read-out: Growth percent rate
MALME-3M = assay: NCI60 one-dose screen (10 μM), Melanoma; assay type: cell-based; settings: Homo sapiens; 10 μM; MALME-3M, Melanoma; read-out: Growth percent rate
M14 = assay: NCI60 one-dose screen (10 μM), Melanoma; assay type: cell-based; settings: Homo sapiens; 10 μM; M14, Melanoma; read-out: Growth percent rate
MDA-MB-435 = assay: NCI60 one-dose screen (10 μM), Melanoma; assay type: cell-based; settings: Homo sapiens; 10 μM; MDA-MB-435, Melanoma; read-out: Growth percent rate
SK-MEL-2 = assay: NCI60 one-dose screen (10 μM), Melanoma; assay type: cell-based; settings: Homo sapiens; 10 μM; SK-MEL-2, Melanoma; read-out: Growth percent rate
SK-MEL-28 = assay: NCI60 one-dose screen (10 μM), Melanoma; assay type: cell-based; settings: Homo sapiens; 10 μM; SK-MEL-28, Melanoma; read-out: Growth percent rate
SK-MEL-5 = assay: NCI60 one-dose screen (10 μM), Melanoma; assay type: cell-based, human; settings: Homo sapiens; 10 μM; SK-MEL-5, Melanoma; read-out: Growth percent rate
UACC-257 = assay: NCI60 one-dose screen (10 μM), Melanoma; assay type: cell-based; settings: Homo sapiens; 10 μM; UACC-257, Melanoma; read-out: Growth percent rate
IGROV1 = assay: NCI60 one-dose screen (10 μM), Ovarian Cancer; assay type: cell-based; settings: Homo sapiens, IGROV-1; 10 μM; IGROV1, Ovarian Cancer; read-out: Growth percent rate
OVCAR-3 = assay: NCI60 one-dose screen (10 μM), Ovarian Cancer; assay type: cell-based; settings: Homo sapiens; 10 μM; OVCAR-3, Ovarian Cancer; read-out: Growth percent rate
OVCAR-4 = assay: NCI60 one-dose screen (10 μM), Ovarian Cancer; assay type: cell-based; settings: Homo sapiens; 10 μM; OVCAR-4, Ovarian Cancer; read-out: Growth percent rate
OVCAR-8 = assay: NCI60 one-dose screen (10 μM), Ovarian Cancer; assay type: cell-based; settings: Homo sapiens; 10 μM; OVCAR-8, Ovarian Cancer; read-out: Growth percent rate
786–0 = assay: NCI60 one-dose screen (10 μM), Renal Cancer; assay type: cell-based; settings: Homo sapiens; 10 μM; 786-0, Renal Cancer; read-out: Growth percent rate
ACHN = assay: NCI60 one-dose screen (10 μM), Renal Cancer; assay type: cell-based; settings: Homo sapiens, 10 μM, Renal Cancer, read-out: Growth percent rate
CAKI-1 = assay: NCI60 one-dose screen (10 μM), Renal Cancer; assay type: cell-based; settings: Homo sapiens; 10 μM; CAKI-1, Renal Cancer; read-out: Growth percent rate
RXF 393 = assay: NCI60 one-dose screen (10 μM), Renal Cancer; assay type: cell-based, human; settings: Homo sapiens; 10 μM; RXF 393, Renal Cancer; read-out: Growth percent rate
SN12C = assay: NCI60 one-dose screen (10 μM), Renal Cancer; assay type: cell-based; settings: Homo sapiens, 10 μM, Renal Cancer, read-out: Growth percent rate
TK-10 = assay: NCI60 one-dose screen (10 μM), Renal Cancer; assay type: cell-based; settings: Homo sapiens; 10 μM; TK-10, Renal Cancer; read-out: Growth percent rate
MCF7 = assay: NCI60 one-dose screen (10 μM), Breast Cancer; assay type: cell-based; settings: Homo sapiens; 10 μM; MCF7, Breast Cancer; read-out: Growth percent rate
HS 578T = assay: NCI60 one-dose screen (10 μM), Breast Cancer; assay type: cell-based; settings: Homo sapiens; 10 μM; HS 578T, Breast Cancer; read-out: Growth percent rate

CC[C@]12C=CCN3CC[C@@]4(c5ccc(OC)cc5N(C)[C@H]4[C@@](O)(C(=O)OC)[C@@H]1OC(=O)CCCN1CCN(C(=O)c4ccco4)CC1)[C@@H]32 [Compound 26]
activity at 10 µM (CCRF-CEM): 103% | activity at 10 µM (HL-60(TB)): 93.8% | activity at 10 µM (K-562): 76.7% | activity at 10 µM (MOLT-4): 77.3% | activity at 10 µM (RPMI-8226): 69.2% | activity at 10 µM (A549/ATCC): 92.7% | activity at 10 µM (EKVX): 87.8% | activity at 10 µM (HOP-62): 107% | activity at 10 µM (NCI-H23): 109% | activity at 10 µM (NCI-H322M): 108% | activity at 10 µM (NCI-H522): 91.6% | activity at 10 µM (COLO 205): 99.7% | activity at 10 µM (HCC-2998): 106% | activity at 10 µM (HCT-116): 104% | activity at 10 µM (HCT-15): 98.8% | activity at 10 µM (HT29): 103% | activity at 10 µM (KM12): 108% | activity at 10 µM (SW-620): 112% | activity at 10 µM (SF-268): 97.3% | activity at 10 µM (SF-295): 89.5% | activity at 10 µM (SF-539): 101% | activity at 10 µM (SNB-19): 94.4% | activity at 10 µM (LOX IMVI): 96.6% | activity at 10 µM (MALME-3M): 102% | activity at 10 µM (M14): 101% | activity at 10 µM (MDA-MB-435): 104% | activity at 10 µM (SK-MEL-2): 109% | activity at 10 µM (SK-MEL-28): 105% | activity at 10 µM (SK-MEL-5): 75.6% | activity at 10 µM (UACC-257): 101% | activity at 10 µM (IGROV1): 109% | activity at 10 µM (OVCAR-3): 121% | activity at 10 µM (OVCAR-4): 94% | activity at 10 µM (OVCAR-8): 104% | activity at 10 µM (786–0): 94.2% | activity at 10 µM (ACHN): 103% | activity at 10 µM (CAKI-1): 79.8% | activity at 10 µM (RXF 393): 102% | activity at 10 µM (SN12C): 103% | activity at 10 µM (TK-10): 104% | activity at 10 µM (MCF7): 88.7% | activity at 10 µM (HS 578T): 96.1%
